Data on 31 compounds can be found in patent US11535621B2, “Heterobicyclic amides as inhibitors of CD38” (Ribon Therapeutics, Inc., priority 2019, dated 2022).

The structures appear in SMILES notation.

Human CD38, sequence (P28907 whole entry): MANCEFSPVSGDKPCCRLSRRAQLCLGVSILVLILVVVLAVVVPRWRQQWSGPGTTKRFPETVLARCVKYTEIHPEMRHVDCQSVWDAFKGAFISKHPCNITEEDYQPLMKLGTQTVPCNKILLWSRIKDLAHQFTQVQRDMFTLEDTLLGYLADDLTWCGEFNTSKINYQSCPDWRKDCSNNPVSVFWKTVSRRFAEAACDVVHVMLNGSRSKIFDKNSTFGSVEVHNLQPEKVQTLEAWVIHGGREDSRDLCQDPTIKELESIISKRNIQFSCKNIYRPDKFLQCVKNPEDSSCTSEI

The assay addresses Human CD38 (Homo sapiens (Human), UniProt P28907). The experiment in a line: CD38 enzyme assay. Type of assay: biochemical. The note with it: 2 nM CD38, NAD+ substrate, absorbance at 405 nm. The method in brief:
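IC50 values come from fitting % inhibition against compound concentration with a 4-parameter logistic, or a 3-parameter fit with top/bottom fixed at 100/0 or Hill at 1. Inhibition is scaled between DMSO wells and positive-control wells treated with a quinolinone CD38 inhibitor.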
As a reminder, the IC50 is the concentration that gives 50% inhibition. The low end stands for higher potency, the high end for lower potency. In the case of `CC(F)(F)CN[C@H]1CC[C@H](NC(=O)c2nc(-n3ccnc3)nc3ccsc23)CC1` [Example 246, N-((1r,4r)-4-((2,2-difluoropropyl)amino)cyclohexyl)-2-(1H-imidazol-1-yl)thieno[3,2-d]pyrimidine-4-carboxamide], the half-inhibitory concentration (IC50) is 10 to 100 nM.

Consider `CN(CC(F)(F)F)[C@H]1CC[C@H](NC(=O)c2nc(-n3ccnc3)nc3cn[nH]c23)CC1` [Example 248, 5-(1H-imidazol-1-yl)-N-((1r,4r)-4-(methyl(2,2,2-trifluoroethyl)amino)cyclohexyl)-1H-pyrazolo[4,3-d]pyrimidine-7-carboxamide], for which the IC50 was in the range of 10 to 100 nM.

Turning to `O=C(N[C@H]1CC[C@H](OCCC(F)(F)F)CC1)c1nc(-n2ccnc2)cc2cn[nH]c12` [Example 249, 5-(1H-imidazol-1-yl)-N-((1r,4r)-4-(3,3,3-trifluoropropoxy)cyclohexyl)-1H-pyrazolo[3,4-c]pyridine-7-carboxamide], the IC50 is below 10 nM.

On to `O=C(N[C@H]1CC[C@H](CNCC(F)(F)F)CC1)c1nc(-n2ccnc2)cc2cn[nH]c12` [Example 250, 5-(1H-imidazol-1-yl)-N-((1r,4r)-4-(((2,2,2-trifluoroethyl)amino)methyl)cyclohexyl)-1H-pyrazolo[3,4-c]pyridine-7-carboxamide], for which the IC50 lay within 10 to 100 nM.

Turning to `O=C(N[C@H]1CC[C@@H](OCC(F)(F)F)CC1)c1nc(-n2ccnc2)cc2cn[nH]c12` [Example 251, 5-(1H-imidazol-1-yl)-N-((1s,4s)-4-(2,2,2-trifluoroethoxy)cyclohexyl)-1H-pyrazolo[3,4-c]pyridine-7-carboxamide], the IC50 was 10 to 100 nM.

On to `O=C(N[C@H]1CC[C@H](OCC(F)(F)F)CC1)c1nc(-n2ccnc2)cc2cn[nH]c12` [Example 252, 5-(1H-imidazol-1-yl)-N-((1r,4r)-4-(2,2,2-trifluoroethoxy)cyclohexyl)-1H-pyrazolo[3,4-c]pyridine-7-carboxamide], for which the IC50 was 10 to 100 nM.

`CC(C)(N[C@H]1CC[C@H](NC(=O)c2nc(-n3ccnc3)cc3cn[nH]c23)CC1)C(F)F` [Example 253, N-((1r,4r)-4-((1,1-difluoro-2-methylpropan-2-yl)amino)cyclohexyl)-5-(1H-imidazol-1-yl)-1H-pyrazolo[3,4-c]pyridine-7-carboxamide] had a 50% inhibitory concentration (IC50) of 10 to 100 nM.

Compound `CC(C)(N[C@H]1CC[C@@H](NC(=O)c2nc(-n3ccnc3)cc3cn[nH]c23)CC1)C(F)F` [Example 254, N-((1s,4s)-4-((1,1-difluoro-2-methylpropan-2-yl)amino)cyclohexyl)-5-(1H-imidazol-1-yl)-1H-pyrazolo[3,4-c]pyridine-7-carboxamide] registered an IC50 of 100 to 1000 nM.

`O=C(N[C@H]1CC[C@H](N2CC(F)(F)C2)CC1)c1nc(-n2ccnc2)nc2cn[nH]c12` [Example 255, N-((1r,4r)-4-(3,3-difluoroazetidin-1-yl)cyclohexyl)-5-(1H-imidazol-1-yl)-1H-pyrazolo[4,3-d]pyrimidine-7-carboxamide] displayed an IC50 of 10 to 100 nM.

For the compound `CC1(F)CN([C@H]2CC[C@@H](NC(=O)c3nc(-n4ccnc4)nc4cn[nH]c34)CC2)C1` [Example 256, N-((1s,4s)-4-(3-fluoro-3-methylazetidin-1-yl)cyclohexyl)-5-(1H-imidazol-1-yl)-1H-pyrazolo[4,3-d]pyrimidine-7-carboxamide], the half-inhibitory concentration (IC50) lay in the range of 100 to 1000 nM.

Consider `CC1(F)CN([C@H]2CC[C@H](NC(=O)c3nc(-n4ccnc4)nc4cn[nH]c34)CC2)C1` [Example 257, N-((1r,4r)-4-(3-fluoro-3-methylazetidin-1-yl)cyclohexyl)-5-(1H-imidazol-1-yl)-1H-pyrazolo[4,3-d]pyrimidine-7-carboxamide], for which the half-maximal inhibitory concentration (IC50) lay within 10 to 100 nM.

`CC1(C#N)CN([C@H]2CC[C@H](NC(=O)c3nc(-n4ccnc4)cc4cn[nH]c34)CC2)C1` [Example 258, N-((1r,4r)-4-(3-cyano-3-methylazetidin-1-yl)cyclohexyl)-5-(1H-imidazol-1-yl)-1H-pyrazolo[3,4-c]pyridine-7-carboxamide] gave an IC50 of 10 to 100 nM.

As for `CC1(C#N)CN([C@H]2CC[C@@H](NC(=O)c3nc(-n4ccnc4)cc4cn[nH]c34)CC2)C1` [Example 259, N-((1s,4s)-4-(3-cyano-3-methylazetidin-1-yl)cyclohexyl)-5-(1H-imidazol-1-yl)-1H-pyrazolo[3,4-c]pyridine-7-carboxamide], the IC50 was in the range of 100 to 1000 nM.

`CC(C)(O)[C@H]1CC[C@H](NC(=O)c2nc(-n3ccnc3)cc3ccsc23)CC1` [Example 260, N-((1r,4r)-4-(2-hydroxypropan-2-yl)cyclohexyl)-5-(1H-imidazol-1-yl)thieno[2,3-c]pyridine-7-carboxamide]: the IC50 was below 10 nM.

On to `O=C(N[C@H]1CC[C@H](NCC(F)F)CC1)c1nc(-n2ccnc2)cc2ccsc12` [Example 261, N-((1r,4r)-4-((2,2-difluoroethyl)amino)cyclohexyl)-5-(1H-imidazol-1-yl)thieno[2,3-c]pyridine-7-carboxamide], for which the IC50 is below 10 nM.

`CC(F)(F)CN[C@H]1CC[C@H](NC(=O)c2nc(-n3ccnc3)cc3ccsc23)CC1` [Example 262, N-((1r,4r)-4-((2,2-difluoropropyl)amino)cyclohexyl)-5-(1H-imidazol-1-yl)thieno[2,3-c]pyridine-7-carboxamide] showed an IC50 of 10 to 100 nM.

Compound `O=C(N[C@H]1CC[C@H](C2(O)CC2)CC1)c1nc(-n2ccnc2)cc2ccsc12` [Example 263, N-((1r,4r)-4-(1-hydroxycyclopropyl)cyclohexyl)-5-(1H-imidazol-1-yl)thieno[2,3-c]pyridine-7-carboxamide] had an IC50 below 10 nM.

Regarding `C[C@@H](O)[C@H]1CC[C@H](NC(=O)c2nc(-n3ccnc3)cc3ccsc23)CC1` [Example 264a, N-((1R,4r)-4-((R)-1-hydroxyethyl)cyclohexyl)-5-(1H-imidazol-1-yl)thieno[2,3-c]pyridine-7-carboxamide], the IC50 is below 10 nM.

Regarding `C[C@H](O)[C@H]1CC[C@H](NC(=O)c2nc(-n3ccnc3)cc3ccsc23)CC1` [Example 264b, N-((1S,4r)-4-((S)-1-hydroxyethyl)cyclohexyl)-5-(1H-imidazol-1-yl)thieno[2,3-c]pyridine-7-carboxamide], the IC50 was in the range of 10 to 100 nM.

Regarding `CC(C)(O)[C@H]1C[C@H](NC(=O)c2nc(-n3ccnc3)nc3cn[nH]c23)C1` [Example 265, N-((1r,3r)-3-(2-hydroxypropan-2-yl)cyclobutyl)-5-(1H-imidazol-1-yl)-1H-pyrazolo[4,3-d]pyrimidine-7-carboxamide], the IC50 lay within 10 to 100 nM.

`CC(C)(O)[C@H]1C[C@H](NC(=O)c2nc(-n3ccnc3)cc3cn[nH]c23)C1` [Example 266, N-((1r,3r)-3-(2-hydroxypropan-2-yl)cyclobutyl)-5-(1H-imidazol-1-yl)-1H-pyrazolo[3,4-c]pyridine-7-carboxamide] registered an IC50 of 10 to 100 nM.

For `COCCO[C@H]1CC[C@H](NC(=O)c2nc(-n3ccnc3)nc3c(C)c[nH]c23)CC1` [Example 268, 2-(1H-imidazol-1-yl)-N-((1r,4r)-4-(2-methoxyethoxy)cyclohexyl)-7-methyl-5H-pyrrolo[3,2-d]pyrimidine-4-carboxamide], the IC50 lay within 10 to 100 nM.

Consider `N#CC1CN([C@H]2CC[C@H](NC(=O)c3nc(-n4ccnc4)cc4cn[nH]c34)CC2)C1` [Example 269, N-((1r,4r)-4-(3-cyanoazetidin-1-yl)cyclohexyl)-5-(1H-imidazol-1-yl)-1H-pyrazolo[3,4-c]pyridine-7-carboxamide], for which the IC50 was in the range of 10 to 100 nM.

`O=C(N[C@H]1CC[C@H](NCC(F)(F)F)CC1)c1nc(-n2ccnc2)cc2ccsc12` [Example 270, 5-(1H-imidazol-1-yl)-N-((1r,4r)-4-((2,2,2-trifluoroethyl)amino)cyclohexyl)thieno[2,3-c]pyridine-7-carboxamide] gave an IC50 of 10 to 100 nM.

Regarding `O=C(N[C@H]1CC[C@H](CNCC(F)(F)F)CC1)c1nc(-n2ccnc2)nc2cn[nH]c12` [Example 271], the IC50 lay within 10 to 100 nM.

With `CC(C)(N[C@H]1CC[C@H](NC(=O)c2nc(-n3ccnc3)nc3cc[nH]c23)CC1)C(F)(F)F` [Example 272, 2-(1H-imidazol-1-yl)-N-((1r,4r)-4-((1,1,1-trifluoro-2-methylpropan-2-yl)amino)cyclohexyl)-5H-pyrrolo[3,2-d]pyrimidine-4-carboxamide], the half-maximal inhibitory concentration (IC50) was 10 to 100 nM.

As for `CC(C)(N[C@H]1CC[C@H](NC(=O)c2nc(-n3ccnc3)nc3cc[nH]c23)CC1)C(F)F` [Example 273, N-((1r,4r)-4-((1,1-difluoro-2-methylpropan-2-yl)amino)cyclohexyl)-2-(1H-imidazol-1-yl)-5H-pyrrolo[3,2-d]pyrimidine-4-carboxamide], the IC50 was in the range of 10 to 100 nM.

For the compound `C[C@]1(NCC(F)(F)F)CC[C@@H](NC(=O)c2nc(-n3ccnc3)nc3cn[nH]c23)CC1` [Example 274, 5-(1H-imidazol-1-yl)-N-((1s,4s)-4-methyl-4-((2,2,2-trifluoroethyl)amino)cyclohexyl)-1H-pyrazolo[4,3-d]pyrimidine-7-carboxamide], the IC50 lay within 10 to 100 nM.

`C[C@]1(NCC(F)(F)F)CC[C@H](NC(=O)c2nc(-n3ccnc3)nc3cn[nH]c23)CC1` [Example 275, 5-(1H-imidazol-1-yl)-N-((1r,4r)-4-methyl-4-((2,2,2-trifluoroethyl)amino)cyclohexyl)-1H-pyrazolo[4,3-d]pyrimidine-7-carboxamide] returned an IC50 of 100 to 1000 nM.

Turning to `CC(C)(N[C@H]1CC[C@H](NC(=O)c2nc(-n3ccnc3)nc3cn[nH]c23)CC1)C(F)(F)F` [Example 276, 5-(1H-imidazol-1-yl)-N-((1r,4r)-4-((1,1,1-trifluoro-2-methylpropan-2-yl)amino)cyclohexyl)-1H-pyrazolo[4,3-d]pyrimidine-7-carboxamide], the half-inhibitory concentration (IC50) lay within 10 to 100 nM.

On to `CC(C)(N[C@H]1CC[C@@H](NC(=O)c2nc(-n3ccnc3)nc3cn[nH]c23)CC1)C(F)(F)F` [Example 277, 5-(1H-imidazol-1-yl)-N-((1s,4s)-4-((1,1,1-trifluoro-2-methylpropan-2-yl)amino)cyclohexyl)-1H-pyrazolo[4,3-d]pyrimidine-7-carboxamide], for which the IC50 lay within 100 to 1000 nM.
